Assay results as given in PubChem BioAssay AID248 (DTP/NCI, 2004).
Several values for one entry are separate records, joined by “and”; a condition that tells them apart may be missing. Equal values may be shown once. Toxic doses and inconclusive results are not listed. No stated cut-off is given here; in the data, active means T/C of 150% or more; inactive means T/C below 125%.

Test system: L1210 leukemia ip in BDF1 mice, survival T/C
Assay: NCI In Vivo Anticancer Drug Screen. Data for tumor model L1210 Leukemia (intraperitoneal) in B6D2F1 (BDF1) mice
Conditions: endpoint: mean survival time, higher = longer survival
Outline: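 Transplanted-tumor mice were given test agent; controls received vehicle only. Survival readings from the two groups were divided (treated over control).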

[1] = dose: 100.0 mg/kg/injection, schedule: Q01DX009 (ip), vehicle: Klucel (hydroxypropylcellulose) (HPC)
[2] = dose: 100.0 mg/kg/injection, schedule: Q04DX002 (ip), vehicle: Klucel (hydroxypropylcellulose) (HPC)
[3] = dose: 200.0 mg/kg/injection, schedule: Q01DX009 (ip), vehicle: Klucel (hydroxypropylcellulose) (HPC)
[4] = dose: 200.0 mg/kg/injection, schedule: Q04DX002 (ip), vehicle: Klucel (hydroxypropylcellulose) (HPC)
[5] = dose: 400.0 mg/kg/injection, schedule: Q01DX009 (ip), vehicle: Klucel (hydroxypropylcellulose) (HPC)
[6] = dose: 400.0 mg/kg/injection, schedule: Q04DX002 (ip), vehicle: Klucel (hydroxypropylcellulose) (HPC)
[7] = dose: 100.0 mg/kg/injection, schedule: Q01DX009 (ip), vehicle: saline
[8] = dose: 100.0 mg/kg/injection, schedule: Q04DX003 (ip), vehicle: saline
[9] = dose: 200.0 mg/kg/injection, schedule: Q04DX003 (ip), vehicle: saline
[10] = dose: 100.0 mg/kg/injection, schedule: Q04DX003 (ip), vehicle: Klucel (hydroxypropylcellulose) (HPC)
[11] = dose: 50.0 mg/kg/injection, schedule: Q04DX003 (ip), vehicle: saline
[12] = dose: 100.0 mg/kg/injection, schedule: Q01DX001 (ip), vehicle: saline with Tween-80
[13] = dose: 200.0 mg/kg/injection, schedule: Q01DX001 (ip), vehicle: saline with Tween-80
[14] = dose: 400.0 mg/kg/injection, schedule: Q01DX001 (ip), vehicle: saline with Tween-80
[15] = dose: 100.0 mg/kg/injection, schedule: Q04DX002 (ip), vehicle: saline with Tween-80
[16] = dose: 400.0 mg/kg/injection, schedule: Q04DX002 (ip), vehicle: saline with Tween-80
[17] = dose: 100.0 mg/kg/injection, schedule: Q04DX003 (ip), vehicle: saline with Tween-80
[18] = dose: 200.0 mg/kg/injection, schedule: Q04DX003 (ip), vehicle: saline with Tween-80
[19] = dose: 400.0 mg/kg/injection, schedule: Q04DX003 (ip), vehicle: saline with Tween-80
[20] = dose: 100.0 mg/kg/injection, schedule: Q01DX009 (ip), vehicle: saline with Tween-80
[21] = dose: 200.0 mg/kg/injection, schedule: Q01DX009 (ip), vehicle: saline with Tween-80
[22] = dose: 400.0 mg/kg/injection, schedule: Q01DX009 (ip), vehicle: saline with Tween-80

Measured: T/C

O=C1CC2(CCN(Cc3ccccc3)CC2)C(=O)N1Nc1ccccc1
inactive: dose: 100.0 mg/kg/injection, schedule: Q01DX001 (ip), vehicle: Klucel (hydroxypropylcellulose) (HPC) 105 % of control | dose: 200.0 mg/kg/injection, schedule: Q01DX001 (ip), vehicle: Klucel (hydroxypropylcellulose) (HPC) 100 % of control | dose: 400.0 mg/kg/injection, schedule: Q01DX001 (ip), vehicle: Klucel (hydroxypropylcellulose) (HPC) 100 % of control

CC(C)=CCNC(=O)NS(=O)(=O)c1ccc(C)cc1
inactive: dose: 50.0 mg/kg/injection, schedule: Q04DX002 (ip), vehicle: Klucel (hydroxypropylcellulose) (HPC) 104 % of control | [1] 100 % of control | [2] 89 % of control | [3] 107 % of control | [4] 93 % of control | [5] 96 % of control

CC(C)=CCC/C(C)=C\COc1ccc(C(C)(C)C)cc1
inactive: [2] 96 % of control | [4] 100 % of control | [6] 89 % of control

O=C(Nc1ccc(C(=O)O)cc1)Nc1cccc2ccccc12
inactive: [2] 113 % of control | [4] 93 % of control | [6] 97 % of control

C1CC2(CCN1)SSC1(CCNCC1)S2
inactive: [7] 113 % of control | [8] 114 % of control | dose: 200.0 mg/kg/injection, schedule: Q01DX009 (ip), vehicle: saline 103 % of control | [9] 112 % of control | dose: 400.0 mg/kg/injection, schedule: Q04DX003 (ip), vehicle: saline 96 % of control

O=c1c(Br)cc(Cl)nc2c(Br)cc(Br)cc12
inactive: dose: 12.0 mg/kg/injection, schedule: Q01DX009 (ip), vehicle: Klucel (hydroxypropylcellulose) (HPC) 103 % of control | dose: 25.0 mg/kg/injection, schedule: Q01DX009 (ip), vehicle: Klucel (hydroxypropylcellulose) (HPC) 103 % of control | dose: 25.0 mg/kg/injection, schedule: Q04DX003 (ip), vehicle: Klucel (hydroxypropylcellulose) (HPC) 102 % of control | dose: 50.0 mg/kg/injection, schedule: Q01DX009 (ip), vehicle: Klucel (hydroxypropylcellulose) (HPC) 96 % of control and 89 % of control | dose: 50.0 mg/kg/injection, schedule: Q04DX003 (ip), vehicle: Klucel (hydroxypropylcellulose) (HPC) 98 % of control | [10] 93 % of control and 91 % of control

CSC(N)=Nc1cccc2c1CCCC2
inactive: dose: 50.0 mg/kg/injection, schedule: Q01DX009 (ip), vehicle: saline 98 % of control | [11] 102 % of control | [7] 98 % of control | [8] 88 % of control | [9] 92 % of control

CCCCCCCCCCCCCCCCS(=O)(=O)N/N=C/c1ccc(Cl)c([N+](=O)[O-])c1
inactive: dose: 100.0 mg/kg/injection, schedule: Q01DX001 (ip), vehicle: carboxymethylcellulose (CMC) 98 % of control | dose: 200.0 mg/kg/injection, schedule: Q01DX001 (ip), vehicle: carboxymethylcellulose (CMC) 107 % of control | dose: 400.0 mg/kg/injection, schedule: Q01DX001 (ip), vehicle: carboxymethylcellulose (CMC) 103 % of control

CCOC(=O)NNC(=S)NCc1ccccc1
inactive: [1] 102 % of control | [3] 98 % of control

Nc1cc(Sc2ccc(Cl)cc2)nc(N)n1
inactive: [12] 100 % of control | [13] 100 % of control | [14] 100 % of control

O=C(/C=C\c1ccc(Cl)c(Cl)c1)/C=C/c1ccc(Cl)c(Cl)c1
inactive: [15] 92 % of control | [16] 92 % of control

CCOc1nc(N)nc2c1-c1ccccc1CC2
inactive: [17] 97 % of control | [18] 97 % of control | [19] 90 % of control

N=C(N)c1ccc(-c2nc3ccc(C(=N)N)cc3[nH]2)cc1
inactive: dose: 12.5 mg/kg/injection, schedule: Q04DX003 (ip), vehicle: saline 100 % of control and 103 % of control | dose: 25.0 mg/kg/injection, schedule: Q04DX003 (ip), vehicle: saline 100 % of control and 103 % of control | [11] 100 % of control and 103 % of control

COc1ccc([N+](=O)[O-])cc1NS(=O)(=O)c1cccc([N+](=O)[O-])c1
inactive: [12] 95 % of control | [20] 89 % of control and 92 % of control | [15] 97 % of control and 101 % of control | [17] 97 % of control | [13] 91 % of control | [21] 92 % of control | dose: 200.0 mg/kg/injection, schedule: Q04DX002 (ip), vehicle: saline with Tween-80 95 % of control and 97 % of control | [18] 97 % of control | [14] 91 % of control | [22] 106 % of control | [16] 94 % of control and 101 % of control | [19] 90 % of control

c1ccc(N(c2ccccc2)c2ccccc2)cc1
inactive: [1] 102 % of control | [20] 93 % of control | [10] 91 % of control | [17] 100 % of control | [3] 91 % of control | [21] 95 % of control | dose: 200.0 mg/kg/injection, schedule: Q04DX003 (ip), vehicle: Klucel (hydroxypropylcellulose) (HPC) 95 % of control | [18] 96 % of control | [5] 98 % of control | [22] 95 % of control | dose: 400.0 mg/kg/injection, schedule: Q04DX003 (ip), vehicle: Klucel (hydroxypropylcellulose) (HPC) 98 % of control | [19] 90 % of control

CN(C)C(=O)CNc1ccc(S(=O)(=O)c2ccc(Cl)cc2)cc1
inactive: [17] 101 % of control | [18] 101 % of control | [19] 95 % of control

Cc1ccc2ccc3c4ccccc4ccc3[n+]2c1
inactive: dose: 10.0 mg/kg/injection, schedule: Q01DX001 (ip), vehicle: saline 102 % of control | dose: 20.0 mg/kg/injection, schedule: Q01DX001 (ip), vehicle: saline 98 % of control
